Assays:
[1] = test system: antibodies in sera from SARS patients (sera 1a, 1b, 2, 6, 37, 62, London, SARS-yellow, SARS-green); type: binding, human; parameters: Binding of serum 6 to linear peptides of protein X1 of SARS-CoV Urbani / Binding of serum 37 to linear peptides of protein X1 of SARS-CoV Urbani / Binding of serum 6 to looped/cyclic peptide (PEPSCAN-ELISA) / Binding of serum 37 to looped/cyclic peptide (PEPSCAN-ELISA) / Binding of serum 37 to looped/cyclic peptides of protein X1 of SARS-CoV Urbani / Binding of serum 6 to linear peptides of protein X2 / Binding of serum 37 to linear peptides of protein X2 / Binding of serum 37 to looped/cyclic peptides of protein X2 of SARS-CoV Urbani / Binding of serum 6 to linear peptides of protein M of SARS-CoV Urbani / Binding of serum 37 to linear peptides of protein M of SARS-CoV Urbani / Binding of serum 6 to looped/cyclic peptides of protein M of SARS-CoV Urbani / Binding of serum 37 to looped/cyclic peptides of protein M of SARS-CoV Urbani / Binding of serum 6 to linear peptides of protein X3 of SARS-CoV Urbani / Binding of serum 37 to linear peptides of protein X3 of SARS-CoV Urbani / Binding of serum 37 to looped/cyclic peptides of protein X3 of SARS-CoV Urbani / Binding of serum 6 to linear peptides of protein X4 of SARS-CoV Urbani / Binding of serum 37 to linear peptides of protein X4 of SARS-CoV Urbani / Binding of serum 37 to looped/cyclic peptides of protein X4 of SARS-CoV Urbani / Binding of serum 6 to linear peptides of protein X5 of SARS-CoV Urbani / Binding of serum 37 to linear peptides of protein X5 of SARS-CoV Urbani / Binding of serum 37 to looped/cyclic peptides of protein X5 of SARS-CoV Urbani / Binding of serum 6 to linear peptides of protein N of SARS-CoV Urbani / Binding of serum 37 to linear peptides of protein N of SARS-CoV Urbani / Binding of serum 6 to linear peptide (PEPSCAN-ELISA) / Binding of serum 1a to looped/cyclic peptides of protein N of SARS-CoV Urbani / Binding of serum 1b to looped/cyclic peptides of protein N of SARS-CoV Urbani / Binding of serum 2 to looped/cyclic peptides of protein N of SARS-CoV Urbani / Binding of serum 6 to looped/cyclic peptides of protein N of SARS-CoV Urbani / Binding of serum 37 to looped/cyclic peptides of protein N of SARS-CoV Urbani / Binding of serum 62 to looped/cyclic peptides of protein N of SARS-CoV Urbani / Binding of serum London to looped/cyclic peptides of protein N of SARS-CoV Urbani / Binding of serum SARS-green to looped/cyclic peptides of protein N of SARS-CoV Urbani: unit not given here
[2] = test system: rabbit serum obtained by immunizing a rabbit with the SARS-CoV strain Frankfurt 1; type: binding; parameters: Binding of a rabbit serum to linear peptides / Binding of a rabbit serum to looped peptides / Rabbit serum linear peptides / Rabbit serum looped peptides / Binding of a rabbit serum to linear peptides of protein N of SARS-CoV Urbani (Rabbit serum linear peptides) / Binding of a rabbit serum to looped/cyclic peptides of protein N of SARS-CoV Urbani (Rabbit serum looped peptides): unit not given here
[3] = test system: control sera (pooled serum of ten healthy LUMC hospital workers; commercial negative donor pooled serum from the Dutch bloodbank); type: binding, human

Sequence	Binding of serum 1a to linear peptides of protein X2 [1]	Binding of serum 1a to looped/cyclic peptides of protein X2 of SARS-CoV Urbani [1]	Binding of serum 1b to linear peptides of protein X2 [1]	Binding of serum 1b to looped/cyclic peptides of protein X2 of SARS-CoV Urbani [1]	Binding of serum 2 to linear peptides of protein X2 [1]	Binding of serum 2 to looped/cyclic peptides of protein X2 of SARS-CoV Urbani [1]	Binding of serum 6 to linear peptides of protein X2 [1]	Binding of serum 6 to looped/cyclic peptides of protein X2 of SARS-CoV Urbani [1]	Binding of serum 37 to linear peptides of protein X2 [1]	Binding of serum 37 to looped/cyclic peptides of protein X2 of SARS-CoV Urbani [1]	Binding of serum 62 to linear peptides of protein X2 [1]	Binding of serum 62 to looped/cyclic peptides of protein X2 of SARS-CoV Urbani [1]	Binding of serum London to linear peptides of protein X2 [1]	Binding of serum London to looped/cyclic peptides of protein X2 of SARS-CoV Urbani [1]	Binding of serum SARS-green to linear peptides of protein X2 [1]	Binding of serum SARS-green to looped/cyclic peptides of protein X2 of SARS-CoV Urbani [1]	Binding of serum SARS-yellow to linear peptides of protein X2 [1]	Binding of serum SARS-yellow to looped/cyclic peptides of protein X2 of SARS-CoV Urbani [1]	Binding of a rabbit serum to linear peptides [2]	Binding of a rabbit serum to looped peptides [2]	further results
HRMCKYTQSTALQEL	0.9	0.6	0.8	0.6	0.5	0.4	0.5	1.0	0.8	0.5	0.8	0.6	0.5	1.5	0.8	0.5	0.8	0.5	0.3	0.4	Binding of Control Serum Blood-Bank to Looped peptides [3]: 0.8; Binding of Control serum Blood-bank to linear peptides [3]: 0.9; Binding of Control serum LUMC to linear peptides [3]: 0.7; Binding of Control serum LUMC to looped peptides [3]: 0.6
HSSSLTSLLKTHRMC	0.6	0.4	0.5	0.4	0.3	0.3	0.5	0.2	0.5	0.3	0.6	0.4	0.5	0.2	0.5	0.3	0.4	0.4	0.2	0.5	Binding of Control Serum Blood-Bank to Looped peptides [3]: 0.5; Binding of Control serum Blood-bank to linear peptides [3]: 0.8; Binding of Control serum LUMC to linear peptides [3]: 0.4; Binding of Control serum LUMC to looped peptides [3]: 0.5

— patent US20070128217A1 (priority 2003, published 2007)
